System: library of 8,380 IKZF3 degrons (ZF-eGFP/mCherry reporter) in Jurkat cells
Test: Pooled library screen (FACS, NGS, limma voom LogFC of positive vs negative read counts)
Format: cell-based, human
Outline: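 Cells were lentivirally transduced at MOI <0.3, and mCherry+ cells were sorted 6 days later. Eight days after sorting, cells were treated with DMSO or thalidomide analog for 18 h at 37 °C. mCherry+GFPlow (DMSO-set gate, DAPI-excluded) and remaining cells were sorted, and degrons were PCR-amplified from gDNA and sequenced (>600× coverage, 3 biological replicates).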

`CN1CCN(c2ccc3c(c2)C(=O)N(C2CCC(=O)NC2=O)C3=O)CC1` (stereo not drawn) [B08, 2-(2,6-dioxopiperidin-3-yl)-5-(4-methylpiperazin-1-yl)isoindoline-1,3-dione] was tested, and the B08_logFC (Degron-ID 3435, SEQ ID NO 2286, 46F_47S_49E_50I_52G_53A_54S_55F_67L) was 2.841, the B08_logFC (Degron-ID 3476, SEQ ID NO 2339, 46F_47S_49E_50V_52G_53A_54T_55F_67L) was 2.705 and the B08_logFC (Degron-ID 3600, SEQ ID NO 2322, 46F_47T_49D_50I_52G_53A_54A_55F_67L) was 2.751. It also gave a B08_logFC (Degron-ID 3732, SEQ ID NO 2280, 46F_47T_49N_50I_52G_53A_54P_55F_67L) of 2.855, a B08_logFC (Degron-ID 3820, SEQ ID NO 2304, 46F_47T_49P_50V_52G_53A_54A_55F_67L) of 2.797 and a B08_logFC (Degron-ID 3832, SEQ ID NO 2318, 46F_47T_49P_50V_52G_53A_54P_55F_67L) of 2.762. For the same compound, the B08_logFC (Degron-ID 3892, SEQ ID NO 2316, 46F_47V_49D_50V_52G_53A_54P_55F_67L) was 2.764, the B08_logFC (Degron-ID 3900, SEQ ID NO 2351, 46F_47V_49E_50I_52G_53A_54A_55F_67L) was 2.675 and the B08_logFC (Degron-ID 3905, SEQ ID NO 2298, 46F_47V_49E_50I_52G_53A_54G_55F_67L) was 2.805. The B08_logFC (Degron-ID 3955, SEQ ID NO 2295, 46F_47V_49E_50V_52G_53A_54S_55F_67L) was 2.815, the B08_logFC (Degron-ID 4129, SEQ ID NO 2331, 46F_47W_49D_50V_52G_53A_54L_55F_67L) was 2.733 and the B08_logFC (Degron-ID 4132, SEQ ID NO 2320, 46F_47W_49D_50V_52G_53A_54P_55F_67L) was 2.758. The B08_logFC (Degron-ID 4158, SEQ ID NO 2311, 46F_47W_49E_50I_52G_53A_54W_55F_67L) was 2.771, the B08_logFC (Degron-ID 4168, SEQ ID NO 2309, 46F_47W_49E_50Q_52G_53A_54K_55F_67L) was 2.774 and the B08_logFC (Degron-ID 4182, SEQ ID NO 2288, 46F_47W_49E_50V_52G_53A_54D_55F_67L) was 2.825. For the same compound, the B08_logFC (Degron-ID 4259, SEQ ID NO 2276, 46F_47W_49N_50V_52G_53A_54Y_55F_67L) was 2.879, the B08_logFC (Degron-ID 4262, SEQ ID NO 2312, 46F_47W_49P_50I_52G_53A_54D_55F_67L) was 2.769 and the B08_logFC (Degron-ID 4269, SEQ ID NO 2299, 46F_47W_49P_50I_52G_53A_54L_55F_67L) was 2.805. For the same compound, the B08_logFC (Degron-ID 4294, SEQ ID NO 2296, 46F_47W_49P_50Q_52G_53A_54R_55F_67L) was 2.812, the B08_logFC (Degron-ID 4325, SEQ ID NO 2330, 46F_47Y_49D_50I_52G_53A_54G_55F_67L) was 2.741 and the B08_logFC (Degron-ID 4368, SEQ ID NO 2270, 46F_47Y_49D_50V_52G_53A_54K_55F_67L) was 2.897. For the same compound, the B08_logFC (Degron-ID 4374, SEQ ID NO 2335, 46F_47Y_49D_50V_52G_53A_54R_55F_67L) was 2.715, the B08_logFC (Degron-ID 4377, SEQ ID NO 2302, 46F_47Y_49D_50V_52G_53A_54V_55F_67L) was 2.8 and the B08_logFC (Degron-ID 4384, SEQ ID NO 2279, 46F_47Y_49E_50I_52G_53A_54F_55F_67L) was 2.859. For the same compound, the B08_logFC (Degron-ID 4400, SEQ ID NO 2269, 46F_47Y_49E_50Q_52G_53A_54A_55F_67L) was 2.899, the B08_logFC (Degron-ID 4413, SEQ ID NO 2317, 46F_47Y_49E_50Q_52G_53A_54Q_55F_67L) was 2.763 and the B08_logFC (Degron-ID 4415, SEQ ID NO 2272, 46F_47Y_49E_50Q_52G_53A_54S_55F_67L) was 2.888. It also gave a B08_logFC (Degron-ID 4445, SEQ ID NO 2347, 46F_47Y_49N_50I_52G_53A_54G_55F_67L) of 2.678, a B08_logFC (Degron-ID 4493, SEQ ID NO 2313, 46F_47Y_49N_50V_52G_53A_54Q_55F_67L) of 2.769 and a B08_logFC (Degron-ID 4495, SEQ ID NO 2266, 46F_47Y_49N_50V_52G_53A_54S_55F_67L) of 2.902. For the same compound, the B08_logFC (Degron-ID 4508, SEQ ID NO 2306, 46F_47Y_49P_50I_52G_53A_54K_55F_67L) was 2.789, the B08_logFC (Degron-ID 4509, SEQ ID NO 2274, 46F_47Y_49P_50I_52G_53A_54L_55F_67L) was 2.886 and the B08_logFC (Degron-ID 4536, SEQ ID NO 2353, 46F_47Y_49P_50Q_52G_53A_54T_55F_67L) was 2.667. For the same compound, the B08_logFC (Degron-ID 4543, SEQ ID NO 2292, 46F_47Y_49P_50V_52G_53A_54E_55F_67L) was 2.819, the B08_logFC (Degron-ID 4550, SEQ ID NO 2352, 46F_47Y_49P_50V_52G_53A_54M_55F_67L) was 2.668 and the B08_logFC (Degron-ID 6545, SEQ ID NO 2345, 46L_47F_49P_50I_52G_53F_54G_55C_67L) was 2.683. For the same compound, the B08_logFC (Degron-ID 6550, SEQ ID NO 2301, 46L_47F_49P_50I_52G_53F_54M_55C_67L) was 2.8, the B08_logFC (Degron-ID 6559, SEQ ID NO 2357, 46L_47F_49P_50I_52G_53F_54Y_55C_67L) was 2.661 and the B08_logFC (Degron-ID 6755, SEQ ID NO 2278, 46L_47S_49P_50I_52G_53F_54S_55C_67L) was 2.86. For the same compound, the B08_logFC (Degron-ID 6775, SEQ ID NO 2332, 46L_47T_49P_50I_52G_53F_54S_55C_67L) was 2.73, the B08_logFC (Degron-ID 6795, SEQ ID NO 2300, 46L_47V_49P_50I_52G_53F_54S_55C_67L) was 2.801 and the B08_logFC (Degron-ID 6824, SEQ ID NO 2285, 46L_47Y_49P_50I_52G_53F_54F_55C_67L) was 2.841. For the same compound, the B08_logFC (Degron-ID 6834, SEQ ID NO 2344, 46L_47Y_49P_50I_52G_53F_54R_55C_67L) was 2.685, the B08_logFC (Degron-ID 7574, SEQ ID NO 2310, 46F_47W_49E_50I_52G_53R_54R_55F_67L) was 2.772 and the B08_logFC (Degron-ID 7616, SEQ ID NO 2308, 46L_47A_49E_50I_52G_53F_54T_55C_67L) was 2.779. For the same compound, the B08_logFC (Degron-ID 7636, SEQ ID NO 2363, 46L_47C_49E_50I_52G_53F_54T_55C_67L) was 2.644, the B08_logFC (Degron-ID 7736, SEQ ID NO 2325, 46L_47H_49E_50I_52G_53F_54T_55C_67L) was 2.749 and the B08_logFC (Degron-ID 7915, SEQ ID NO 2362, 46L_47T_49E_50I_52G_53F_54S_55C_67L) was 2.649. For the same compound, the B08_logFC (Degron-ID 7964, SEQ ID NO 2360, 46L_47Y_49E_50I_52G_53F_54F_55C_67L) was 2.653, the B08_logFC (Degron-ID 7971, SEQ ID NO 2297, 46L_47Y_49E_50I_52G_53F_54N_55C_67L) was 2.807 and the “position of the WT sequence in the volcano plot of the library screen” value (WT ZF sequence) was “far away from the ‘hits’ region”.
